According to US20260242392A1, “ARYL TRICYCLIC STING AGONISTS AND USE THEREOF” (SHENZHEN GENUINE BIOTECHNOLOGY CO., LTD., priority 2023, published 2026):

System: not listed separately
Assay: Pharmacokinetic (PK) study in ICR mice, IV and PO
Conditions: ICR, mouse, plasma, iv, 2 mg/kg
Procedure: The doses for IV and PO were 2 mg/kg and 5 mg/kg, respectively. Blood was collected at different time points after IV and PO administration and placed in heparinized tubes. Plasma was separated and frozen in a −20° C. refrigerator. Plasma was processed and then analyzed by LCMS/MS. Pharmacokinetic parameters of drug administration were calculated using a non-compartmental model in WinNonlin 8.2 software.

AUC(0-t) [ng·h/mL]	Vd [L/kg]	clearance [mL/min/kg]	half-life [h]	SMILES
1010	0.343	33	0.431	COc1cc2cc(C(=O)CCC(=O)O)sc2cc1OC [MAS-2, reference compound]
4300	0.49	7.56	2.68	COc1cc2sc(C(=O)C[C@H](C)C(=O)O)cc2c2cc(F)oc12 [Example 62, (S)-4-(2-fluoro-4-methoxythieno[3,2-e]benzofuran-7-yl)-2-methyl-4-oxobutanoic acid]
4240	0.264	7.85	1.11	COc1cc2sc(C(=O)CCC(=O)O)cc2c2nc(C)oc12 [Example 6, 4-(4-methoxy-2-methylthieno[2′,3′:5,6]benzo[1,2-d]oxazol-7-yl)-4-oxobutanoic acid]
5500	0.191	6.03	2.35	COc1cc2sc(C(=O)C[C@H](C)C(=O)O)cc2c2c(F)c(C)oc12 [Compound 59]
3700	0.252	8.98	0.821	COc1cc2sc(C(=O)C[C@H](C)C(=O)O)cc2c2cc(C)oc12 [Example 32]
660	0.76	50.3	0.658	COc1cc2sc(C(=O)CCC(=O)O)cc2c2ncoc12 [Compound 1, 4-(4-methoxythieno[2′,3′:5,6]benzo[1,2-d]oxazol-7-yl)-4-oxobutanoic acid]

Same assay, conditions: ICR, mouse, plasma, po, 5 mg/kg

AUC(0-t) [ng·h/mL]	Cmax [ng/mL]	bioavailability [%]	half-life [h]	SMILES
1530	2810	61.2	1.63	COc1cc2cc(C(=O)CCC(=O)O)sc2cc1OC [MAS-2, reference compound]
10200	10100	92.9	3.05	COc1cc2sc(C(=O)C[C@H](C)C(=O)O)cc2c2cc(F)oc12 [Example 62, (S)-4-(2-fluoro-4-methoxythieno[3,2-e]benzofuran-7-yl)-2-methyl-4-oxobutanoic acid]
3680	4280	42.5	2.64	COc1cc2sc(C(=O)CCC(=O)O)cc2c2nc(C)oc12 [Example 6, 4-(4-methoxy-2-methylthieno[2′,3′:5,6]benzo[1,2-d]oxazol-7-yl)-4-oxobutanoic acid]
5180	7700	38	1.1	COc1cc2sc(C(=O)C[C@H](C)C(=O)O)cc2c2c(F)c(C)oc12 [Compound 59]
3450	5360	37.4	0.925	COc1cc2sc(C(=O)C[C@H](C)C(=O)O)cc2c2cc(C)oc12 [Example 32]
757	1270	47	1.56	COc1cc2sc(C(=O)CCC(=O)O)cc2c2ncoc12 [Compound 1, 4-(4-methoxythieno[2′,3′:5,6]benzo[1,2-d]oxazol-7-yl)-4-oxobutanoic acid]

Same assay, conditions: mouse PK, injection 2 mg/kg and oral 5 mg/kg

clearance in vivo compared to MAS-2	exposure in vivo compared to MAS-2	SMILES
lower clearance	higher exposure	COc1cc2sc(C(=O)C[C@H](C)C(=O)O)cc2c2c(F)c(C)oc12 [Compound 59]

Same assay, conditions: mouse PK, oral administration at 5 mg/kg

oral availability [%]	SMILES
61.23	COc1cc2cc(C(=O)CCC(=O)O)sc2cc1OC [MAS-2, reference compound]

Target: T1, Sting-HAQ (Homo sapiens, UniProt Q86WV6, G230A/H232R/R293Q/R71H)
T1 construct: host or cells: HEK293-HAQ Luc reporter cell line
T1 sequence (Q86WV6 whole entry R71H/G230A/H232R/R293Q): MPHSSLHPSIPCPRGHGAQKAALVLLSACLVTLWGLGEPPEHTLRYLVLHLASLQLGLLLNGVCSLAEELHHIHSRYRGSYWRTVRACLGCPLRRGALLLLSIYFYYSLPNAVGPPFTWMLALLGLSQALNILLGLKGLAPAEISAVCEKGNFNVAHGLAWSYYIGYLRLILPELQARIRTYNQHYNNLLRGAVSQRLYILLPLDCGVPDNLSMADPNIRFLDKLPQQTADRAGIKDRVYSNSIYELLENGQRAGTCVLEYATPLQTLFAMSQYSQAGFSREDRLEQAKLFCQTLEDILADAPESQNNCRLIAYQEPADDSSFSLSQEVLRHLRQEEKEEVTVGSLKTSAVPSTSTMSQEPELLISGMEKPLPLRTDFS
Assay: HEK293-HAQ Luc reporter gene assay (Steady-Glo luciferase)
Assay type: cell-based
Conditions: 24 h incubation; read-out: HEK293-HAQ Luc Report Assay (24 h) EC50
Procedure: Test Principle: The HEK293-HAQ Luc reporter cell line utilizes the chemiluminescent reaction property of luciferase binding to its substrate beetle luciferin. The regulatory elements of the Sting-HAQ gene transcription are cloned upstream/downstream of the firefly luciferase gene to construct a luciferase recombinant plasmid. The recombinant plasmid is then transfected into HEK293 cells. After treatment with compounds, the cells are lysed, and the luciferase activity is measured using the Steady-Glo® detection system (Cat #E2550) manufactured by Promega Corporation. The effect of compounds on the Sting-HAQ regulatory elements is determined based on the level of luciferase activity. The Steady Glo® Luciferase Assay System enables high-throughput evaluation of the degree of activation of reporter cell lines by compounds through the activity of luciferase in mammalian cells, and provides long-term stable luminescence when used with reporter cell lines. The detection system can sustain a signal half-life of more than 5 hours in the test cell culture medium, enabling uniform measurement without sample pretreatment.
Test Method: Complete medium (DMEM+10% FBS+1% P/S) was prepared. The Hek293-HAQ Luc reporter cell line was resuscitated and passaged twice. Cells in logarithmic growth phase were collected by centrifugation, counted, and resuspended to an appropriate concentration. The cell suspension was seeded into a 96-well plate at a density of 20000 cells/well, with 100 µL of the cell suspension added per well. Test compounds were prepared into stock solutions with DMSO, and serially diluted 3-fold with DMSO starting from the highest concentration of 100 mM to obtain 9 concentration gradients. The test compounds were diluted 47.62-fold with culture medium, and 5 μL of each dilution was added to the 96-well plate containing 100 μL of cells. To Min control wells were added 5 μL of DMSO-cell culture medium mixture (with a final DMSO concentration of 0.1%), while Max control wells received 5 μL of a positive reference compound. The plate was incubated at 37° C. in an incubator with 5% carbon dioxide and relative humidity above 90% for 24 h. Subsequently, 75 μL/well of […] was added to terminate the reaction. After shaking at 305 rpm for 10 min, the plates were detected on Envision. The […] value RLU of each well was read, and the activation rate was calculated according to the formula: Activation %=(Sample−Ave_L)/(Ave_H−Ave_L)×100, where Ave_L: RLU Min (0.1% DMSO), Ave_H: RLU Max (positive reference compound). The activation rate, Activation % (Y), corresponding to each concentration (X), was entered in EXCEL. The half-maximal effective concentration EC50 value of each compound was calculated according to the built-in four-parameter fitting formula Y=Bottom+(Top−Bottom)/(1+10^((LogEC50−X)*HillSlope)) using the XLfit plug-in.

SMILES	EC50 [µM]
COc1cc2sc(C(=O)CC(C)C(=O)O)nc2c2cc(C)oc12 (stereo not shown)	2.34
CC[C@@H](CC(=O)c1cc2c(cc(OC)c3oc(F)cc32)s1)C(=O)O	0.352
COc1cc2sc(C(=O)CCC(=O)O)c(C)c2c2ccoc12	29.8
COc1cc2sc(C(=O)CC(C)C(=O)O)nc2c2nc(C)oc12 (stereo not shown)	3.32
O=C(O)CCC(=O)c1cc2c(ccc3[nH]ncc32)s1	> 100
COc1cc2sc(C(=O)CC(C)C(=O)O)cc2c2ccoc12 (stereo not shown)	2.2
CCC(CC(=O)c1cc2c(cc(OC)c3occc32)s1)C(=O)O (stereo not shown)	0.979
COc1cc2sc(C(=O)CCC(=O)O)cc2c2ccoc12	2.52
COc1cc2sc(C(=O)CCC(=O)O)cc2c2ncoc12 [drawing 622]	1.23
CCc1nc2c(o1)c(OC)cc1sc(C(=O)CCC(=O)O)cc12	36
CC[C@H](CC(=O)c1cc2c(cc(OC)c3oc(C)cc32)s1)C(=O)O	4.46
CCC(CC(=O)c1cc2c(cc(OC)c3oc(C)cc32)s1)C(=O)O (stereo not shown)	0.565
[2H]c1c(C)oc2c(OC)cc3sc(C(=O)C[C@H](C)C(=O)O)cc3c12	0.313
COc1cc2sc(C(=O)CC(C)C(=O)O)c(C)c2c2ncoc12 (stereo not shown)	92
COc1cc2sc(C(=O)CCC(=O)O)c(C)c2c2cc(C)oc12	19
COc1cc2sc(C(=O)C[C@@H](C)C(=O)O)cc2c2cc(F)oc12	6.87
COc1cc2sc(C(=O)CC(C)C(=O)O)cc2c2ncoc12 (stereo not shown) [drawing 631]	1.12
COc1cc2sc(C(=O)CCC(=O)O)cc2c2c1ncn2C	> 100
COc1cc2sc(C(=O)CCC(=O)O)c(C)c2c2nc(N)oc12	> 100
COc1cc2sc(C(=O)CCC(=O)O)cc2c2nc(C)oc12 [drawing 626]	1.58

SMILES	EC50 [µM]
COc1cc2sc(C(=O)CCC(=O)O)c(C)c2c2ncoc12	58
COc1cc2sc(C(=O)C[C@@H](C)C(=O)O)cc2c2c(F)c(C)oc12	1.51
COc1cc2sc(C(=O)CCC(=O)O)cc2c2cnoc12	> 100
COc1cc2sc(C(=O)C[C@H](C)C(=O)O)cc2c2cc(C)oc12 [drawing 660]	0.341
COc1cc2sc(C(=O)C[C@H](C)C(=O)O)cc2c2ncoc12 [drawing 651]	0.16
COc1cc2sc(C(=O)CCC(=O)O)cc2c2cc(C)oc12	1.04
COc1cc2sc(C(=O)CCC(=O)O)cc2c2c1OCC2	7.87
COc1cc2sc(C(=O)CCC(=O)O)cc2c2nc(C3CC3)oc12	90.7
COc1cc2sc(C(=O)CCC(=O)O)nc2c2nc(C)oc12	18
COc1cc2sc(C(=O)C[C@@H](C)C(=O)O)cc2c2ncoc12	5.81
COc1cc2sc(C(=O)CCC(=O)O)cc2c2nc[nH]c12	> 100
C[Si](C)(C)CCOCn1ncc2c3cc(C(=O)CCC(=O)O)sc3ccc21	> 100
CCC(CC(=O)c1cc2c(cc(OC)c3ocnc32)s1)C(=O)O (stereo not shown)	0.308
CCC(CC(=O)c1cc2c(cc(OC)c3oc(C)nc32)s1)C(=O)O (stereo not shown)	0.326
Cn1cc2c(ccc3sc(C(=O)CCC(=O)O)cc32)n1	41.8
COc1cc2sc(C(=O)CCC(=O)O)cc2c2cc(F)oc12	0.792
COc1cc2sc(C(=O)CCC(=O)O)cc2c2cn(C)nc12	49
COc1cc2sc(C(=O)CCC(=O)O)cc2c2ccn(C)c12	> 100
CC[C@H](CC(=O)c1cc2c(cc(OC)c3oc(F)cc32)s1)C(=O)O	4.1

Other lines, results leading:

EC50 [µM]	SMILES
0.24	CC[C@@H](CC(=O)c1cc2c(cc(OC)c3oc(C)cc32)s1)C(=O)O
> 100	COc1cc2sc(C(=O)CCC(=O)O)cc2c2cnn(C)c12
2.59	COc1cc2cc(C(=O)CCC(=O)O)sc2cc1OC [MAS-2, reference compound]
0.302	CC[C@@H](CC(=O)c1cc2c(cc(OC)c3ocnc32)s1)C(=O)O [drawing 659]
10.7	COc1cc2sc(C(=O)CCC(=O)O)cc2c2ccsc12
67.7	COc1cc2sc(C(=O)C[C@@H](C)C(=O)O)nc2c2nc(C)oc12
0.823	CCC(CC(=O)c1cc2c(cc(OC)c3oc(F)cc32)s1)C(=O)O (stereo not shown)
> 100	COc1cc2sc(C(=O)CC(C)C(=O)O)cc2c2nc(N)oc12 (stereo not shown)
> 100	COc1cc2sc(C(=O)CCC(=O)O)cc2c2nc(C(C)C)oc12
> 100	COc1cc2sc(C(=O)CCC(=O)O)cc2c2c1CCC2
0.19	COc1cc2sc(C(=O)C[C@H](C)C(=O)O)cc2c2c(F)c(C)oc12 [drawing 678]
59.9	COc1cc2sc(C(=O)C(C)CC(=O)O)nc2c2nc(C)oc12 (stereo not shown)
> 100	Cn1ncc2c3cc(C(=O)CCC(=O)O)sc3ccc21
1.2	COc1cc2sc(C(=O)CC(C)C(=O)O)cc2c2cc(C)oc12 (stereo not shown)
> 100	COc1cc2sc(C(=O)CCC(=O)O)cc2c2ncn(C)c12
> 100	COc1cc2sc(C(=O)CCC(=O)O)cc2c2c1OCCO2
2.5	COc1cc2sc(C(=O)CCC(=O)O)cc2c2ocnc12
> 100	C[Si](C)(C)CCOCn1cc2c(ccc3sc(C(=O)CCC(=O)O)cc32)n1
> 100	COc1cc2sc(C(=O)CCC(=O)O)cc2c2nc(N)oc12
> 100	COc1cc2sc(C(=O)CC(C)C(=O)O)c(C)c2c2nc(N)oc12 (stereo not shown)
0.57	COc1cc2sc(C(=O)CC(C)C(=O)O)cc2c2cc(F)oc12 (stereo not shown)
4.18	COc1cc2sc(C(=O)C[C@H](C)C(=O)O)nc2c2nc(C)oc12
0.465	COc1cc2sc(C(=O)C[C@H](C)C(=O)O)cc2c2cc(F)oc12 [drawing 673]
0.263	[2H]C([2H])([2H])Oc1cc2sc(C(=O)C[C@H](C)C(=O)O)cc2c2cc(F)oc12
29.3	C[C@@H](CC(=O)c1cc2c(cc(O)c3oc(F)cc32)s1)C(=O)O
